Usually IC50 stands for the concentration that inhibits the measured activity by half. Lower therefore signals inhibition by little substance.

The values below come from ChEMBL document CHEMBL3124797, “Copper complexes with phosphonium containing hydrazone ligand: topoisomerase inhibition and cytotoxicity study” (Eur J Med Chem, 2014).

Experiment [1] relates to MRC5. As to the kind of experiment: Cytotoxicity against human MRC5 cells after 72 hrs by MTT assay. The following applies: MRC5, 72 h. The class given is cell-based. In general terms: Tetrazolium dyes change colour on reduction, which living cells bring about.
In another experiment the test system is PC-3. As to the kind of experiment: Cytotoxicity against human PC3 cells after 72 hrs by MTT assay. The class given is functional, cell-based. The following applies: PC-3, 72 h.
Experiment [2] concerns MRC5. Kind of experiment: Selectivity index, ratio of IC50 for human MRC5 cells to IC50 for human PC3 cells. The class given is functional.
The next experiment relates to A549. Kind of experiment: Cytotoxicity against human A549 cells after 72 hrs by MTT assay. The experiment is classed as functional, cell-based. The following applies: A549, 72 h.

Where only a bound is given, the exact number is not on record here.

Take `O.O=C(N/N=C/c1cc(C[P+](c2ccccc2)(c2ccccc2)c2ccccc2)ccc1O)c1ccccc1.[Cl-]`: the results for the concentration for half-maximal inhibition (IC50) in the experiment with MRC5 [1], with PC-3 and in the experiment with A549 were 12.2 µM, 14.4 µM and over 30 µM, respectively. In addition, the “Ratio IC50” value in the experiment with MRC5 [2] worked out at 0.85.

For `O=Cc1cc(C[P+](c2ccccc2)(c2ccccc2)c2ccccc2)ccc1O`, the half-inhibitory concentration (IC50) in the experiment with MRC5 [1], in the experiment with PC-3 and in the experiment on A549 was over 30 µM in each case.
